# Assay results from patent EP4667458A1 (Kanaph Therapeutics Inc., priority 2023, dated 2024).
# pIC50: −log10 of the molar value.
# Molecular target: T1, KRAS^G12C::SOS1 (Homo sapiens, UniProt Q07889)
# T1 sequence (Q07889 1-1333): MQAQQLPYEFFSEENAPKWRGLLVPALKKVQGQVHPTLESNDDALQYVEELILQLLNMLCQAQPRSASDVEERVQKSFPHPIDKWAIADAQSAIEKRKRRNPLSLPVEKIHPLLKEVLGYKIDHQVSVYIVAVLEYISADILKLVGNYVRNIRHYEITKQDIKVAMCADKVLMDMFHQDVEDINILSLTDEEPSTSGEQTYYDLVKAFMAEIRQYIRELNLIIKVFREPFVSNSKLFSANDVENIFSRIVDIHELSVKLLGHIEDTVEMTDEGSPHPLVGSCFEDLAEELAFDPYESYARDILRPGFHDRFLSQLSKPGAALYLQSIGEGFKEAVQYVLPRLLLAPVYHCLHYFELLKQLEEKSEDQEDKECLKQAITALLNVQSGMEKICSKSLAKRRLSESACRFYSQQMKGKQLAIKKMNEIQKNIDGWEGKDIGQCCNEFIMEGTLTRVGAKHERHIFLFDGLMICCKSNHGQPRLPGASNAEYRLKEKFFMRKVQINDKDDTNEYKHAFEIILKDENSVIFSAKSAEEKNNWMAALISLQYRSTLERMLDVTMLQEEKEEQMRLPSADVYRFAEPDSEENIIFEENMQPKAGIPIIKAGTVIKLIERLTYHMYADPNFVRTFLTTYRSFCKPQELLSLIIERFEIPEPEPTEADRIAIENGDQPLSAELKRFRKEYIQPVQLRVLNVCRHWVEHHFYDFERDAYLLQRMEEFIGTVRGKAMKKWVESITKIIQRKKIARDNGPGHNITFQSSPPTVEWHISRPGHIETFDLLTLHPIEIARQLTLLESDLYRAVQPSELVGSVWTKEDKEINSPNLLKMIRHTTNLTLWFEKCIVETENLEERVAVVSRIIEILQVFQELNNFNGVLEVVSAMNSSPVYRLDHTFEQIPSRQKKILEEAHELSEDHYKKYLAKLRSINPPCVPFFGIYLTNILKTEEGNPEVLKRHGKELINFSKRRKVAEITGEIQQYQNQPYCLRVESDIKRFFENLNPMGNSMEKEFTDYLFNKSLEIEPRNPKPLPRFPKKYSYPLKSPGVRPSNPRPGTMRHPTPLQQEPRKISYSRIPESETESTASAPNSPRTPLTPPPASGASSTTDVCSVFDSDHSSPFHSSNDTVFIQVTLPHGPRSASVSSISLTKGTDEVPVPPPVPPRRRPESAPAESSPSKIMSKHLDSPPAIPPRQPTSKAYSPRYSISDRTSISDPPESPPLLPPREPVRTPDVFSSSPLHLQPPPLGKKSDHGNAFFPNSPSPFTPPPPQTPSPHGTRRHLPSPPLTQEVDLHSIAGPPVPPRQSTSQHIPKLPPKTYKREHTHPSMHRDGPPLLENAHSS
# Assay: KRAS G12C::SOS1 protein-protein interaction (PPI) inhibition assay (HTRF binding kit)
# Experimental: Protein-protein interaction between SOS1 and KRAS^G12C was detected using KRAS G12C/SOS1 binding kit from CISBIO (64KRASG12PEH, CISBIO, FRANCE) according to the manufacturer's assay method. Briefly, the maximum concentration of an inhibitor sample was set to be 3 µM, and the inhibitor sample was diluted 7 times by 1/3, and samples having a total of 8 concentrations were prepared. In HTRF (Homogeneous Time-Resolved Fluorescence) exclusive 96-well low-volume white plate (66PL96005, CISBIO, FRANCE), 2 µL of an inhibitor sample prepared for each concentration, 5 µL of a mixed solution of Tag1-labeled KRAS^G12C protein and GTP diluted with the dilution solution provided by the manufacturer, and 5 µL of Tag2 labeled SOS1 protein were mixed, and added with 8 µL of a diluted solution where anti-Tag1 KRAS^G12C XL665 (HTRF acceptor) labeled antibody and anti-Tag2 SOS1 Terbium cryptate (HTRF donor) labeled antibody were mixed in an equal ratio and incubated at room temperature for 2 h.
row,SMILES,pIC50
1,"C[C@@H](NC(=O)c1ccc(=O)n(-c2cccc(-c3nccs3)c2)n1)c1cccc(C(F)(F)CO)c1F [Example 336, N-[(1R)-1-[3-(1,1-difluoro-2-hydroxy-ethyl)-2-fluoro-phenyl]ethyl]-6-oxo-1-(3-thiazol-2-ylphenyl)pyridazine-3-carboxamide]",> 6.00
2,"C[C@@H](NC(=O)c1ccc(=O)n(-c2cccc(-c3nccs3)c2)n1)c1cc(N)cc(C(F)(F)F)c1 [Example 337, N-[(1R)-1-[3-amino-5-(trifluoromethyl)phenyl]ethyl]-6-oxo-1-(3-thiazol-2-ylphenyl)pyridazine-3-carboxamide]",> 6.00
3,"C[C@@H](NC(=O)c1ccc(=O)n(-c2cccc(-c3cccnc3)c2)n1)c1cc(N)cc(C(F)(F)F)c1 [Example 338, N-[(1R)-1-[3-amino-5-(trifluoromethyl)phenyl]ethyl]-6-oxo-1-[3-(3-pyridyl)phenyl]pyridazine-3-carboxamide]",> 6.00
4,"C[C@@H](NC(=O)c1ccc(=O)n(-c2cccc(-c3cncs3)c2)n1)c1cccc(C(F)(F)CO)c1F [Example 339, N-[(1R)-1-[3-(1,1-difluoro-2-hydroxy-ethyl)-2-fluorophenyl]ethyl]-6-oxo-1-(3-thiazol-5-ylphenyl)pyridazine-3-carboxamide]",> 6.00
5,"C[C@@H](NC(=O)c1ccc(=O)n(-c2cccc(-c3cnn(C)c3)c2)n1)c1cccc(C(F)(F)CO)c1F [Example 340, N-[(1R)-1-[3-(1,1-difluoro-2-hydroxy-ethyl)-2-fluoro-phenyl]ethyl]-1-[3-(1-methylpyrazol-4-yl)phenyl]-6-oxo-pyridazine-3-carboxamide]",> 6.00
6,"C[C@@H](NC(=O)c1ccc(=O)n(-c2cccc(-c3cncs3)c2)n1)c1cc(N)cc(C(F)(F)F)c1 [Example 341, N-[(1R)-1-[3-amino-5-(trifluoromethyl)phenyl]ethyl]-6-oxo-1-(3-thiazol-5-ylphenyl)pyridazine-3-carboxamide]",> 6.00
7,"C[C@@H](NC(=O)c1ccc(=O)n(-c2cccc(-c3ccno3)c2)n1)c1cc(N)cc(C(F)(F)F)c1 [Example 342, N-[(1R)-1-[3-amino-5-(trifluoromethyl)phenyl]ethyl]-1-(3-isoxazol-5-ylphenyl)-6-oxo-pyridazine-3-carboxamide]",> 6.00
8,"C[C@@H](NC(=O)c1ccc(=O)n(-c2cccc(-c3cnco3)c2)n1)c1cc(N)cc(C(F)(F)F)c1 [Example 343, N-[(1R)-1-[3-amino-5-(trifluoromethyl)phenyl]ethyl]-1-(3-oxazol-5-ylphenyl)-6-oxo-pyridazine-3-carboxamide]",> 6.00
9,"C[C@@H](NC(=O)c1ccc(=O)n(-c2cccc(-c3ccn(C(F)F)n3)c2)n1)c1cc(N)cc(C(F)(F)F)c1 [Example 344, N-[(1R)-1-[3-amino-5-(trifluoromethyl)phenyl]ethyl]-1-[3-[1-(difluoromethyl)pyrazol-3-yl]phenyl]-6-oxo-pyridazine-3-carboxamide]",> 6.00
10,"C[C@@H](NC(=O)c1ccc(=O)n(-c2cccc(-c3ccn(C(F)F)n3)c2)n1)c1cccc(C(F)(F)CO)c1F [Example 345, N-[(1R)-1-[3-(1,1-difluoro-2-hydroxy-ethyl)-2-fluoro-phenyl]ethyl]-1-[3-[1-(difluoromethyl)pyrazol-3-yl]phenyl]-6-oxo-pyridazine-3-carboxamide]",> 6.00
11,"C[C@@H](NC(=O)c1ccc(=O)n(-c2cccc(-c3nnnn3C)c2)n1)c1cc(N)cc(C(F)(F)F)c1 [Example 347, N-[(1R)-1-[3-amino-5-(trifluoromethyl)phenyl]ethyl]-1-[3-(1-methyltetrazol-5-yl)phenyl]-6-oxo-pyridazine-3-carboxamide]",> 6.00
12,"C[C@@H](NC(=O)c1ccc(=O)n(-c2cccc(-c3nncn3C)c2)c1)c1cc(N)cc(C(F)(F)F)c1 [Example 348, N-[(1R)-1-[3-amino-5-(trifluoromethyl)phenyl]ethyl]-1-[3-(4-methyl-1,2,4-triazol-3-yl)phenyl]-6-oxo-pyridine-3-carboxamide]",> 6.00
13,"C[C@@H](NC(=O)c1ccc(=O)n(-c2cccc(-c3nnnn3C)c2)c1)c1cc(N)cc(C(F)(F)F)c1 [Example 349, N-[(1R)-1-[3-amino-5-(trifluoromethyl)phenyl]ethyl]-1-[3-(1-methyltetrazol-5-yl)phenyl]-6-oxo-pyridine-3-carboxamide]",> 6.00
14,"Cc1nnn(C)c1-c1cccc(-n2nc(C(=O)N[C@H](C)c3cc(N)cc(C(F)(F)F)c3)ccc2=O)c1 [Example 350, N-[(1R)-1-[3-amino-5-(trifluoromethyl)phenyl]ethyl]-1-[3-(3,5-dimethyltriazol-4-yl)phenyl]-6-oxo-pyridazine-3-carboxamide]",> 6.00
15,"C[C@@H](NC(=O)c1ccc(=O)n(-c2cccc(-c3cccc(=O)n3C)c2)n1)c1cc(N)cc(C(F)(F)F)c1 [Example 351, N-[(1R)-1-[3-amino-5-(trifluoromethyl)phenyl]ethyl]-1-[3-(1-methyl-6-oxo-2-pyridyl)phenyl]-6-oxo-pyridazine-3-carboxamide]",> 6.00
16,"C[C@@H](NC(=O)c1ccc(=O)n(-c2ccc(F)cc2F)n1)c1cccc(C(F)(F)CO)c1F [Example 352, N-[(1R)-1-[3-(1,1-difluoro-2-hydroxy-ethyl)-2-fluoro-phenyl]ethyl]-1-(2,4-difluorophenyl)-6-oxo-pyridazine-3-carboxamide]",> 6.00
17,"C[C@@H](NC(=O)c1ccc(=O)n(-c2cccc(C(=O)N(C)C)c2F)n1)c1cccc(C(F)(F)CO)c1F [Example 353, N-[(1R)-1-[3-(1,1-difluoro-2-hydroxy-ethyl)-2-fluoro-phenyl]ethyl]-1-[3-(dimethylcarbamoyl)-2-fluoro-phenyl]-6-oxo-pyridazine-3-carboxamide]",> 6.00
18,"C[C@@H](NC(=O)c1ccc(=O)n(-c2cccc(C(=O)N(C)C)c2F)n1)c1cc(N)cc(C(F)(F)F)c1 [Example 354, N-[(1R)-1-[3-amino-5-(trifluoromethyl)phenyl]ethyl]-1-[3-(dimethylcarbamoyl)-2-fluoro-phenyl]-6-oxo-pyridazine-3-carboxamide]",> 6.00
19,"C[C@@H](NC(=O)c1ccc(=O)n(-c2cccc(F)c2F)n1)c1cccc(C(F)(F)CO)c1F [Example 355, N-[(1R)-1-[3-(1,1-difluoro-2-hydroxy-ethyl)-2-fluoro-phenyl]ethyl]-1-(2,3-difluorophenyl)-6-oxo-pyridazine-3-carboxamide]",> 6.00
20,"C[C@@H](NC(=O)c1ccc(=O)n(-c2cc(F)ccc2F)n1)c1cccc(C(F)(F)CO)c1F [Example 356, N-[(1R)-1-[3-(1,1-difluoro-2-hydroxy-ethyl)-2-fluoro-phenyl]ethyl]-1-(2,5-difluorophenyl)-6-oxo-pyridazine-3-carboxamide]",> 6.00
21,"C[C@@H](NC(=O)c1ccc(=O)n(-c2c(F)cccc2F)n1)c1cccc(C(F)(F)CO)c1F [Example 357, N-[(1R)-1-[3-(1,1-difluoro-2-hydroxy-ethyl)-2-fluoro-phenyl]ethyl]-1-(2,6-difluorophenyl)-6-oxo-pyridazine-3-carboxamide]",5.00 to 6.00
22,"C[C@@H](NC(=O)c1ccc(=O)n(-c2cccc(-c3cnnn3C)c2F)n1)c1cccc(C(F)(F)CO)c1F [Example 358, N-[(1R)-1-[3-(1,1-difluoro-2-hydroxy-ethyl)-2-fluoro-phenyl]ethyl]-1-[2-fluoro-3-(3-methyltriazol-4-yl)phenyl]-6-oxo-pyridazine-3-carboxamide]",> 6.00
23,"C[C@@H](NC(=O)c1ccc(=O)n(-c2cccc(-c3cnnn3C)c2F)n1)c1cc(N)cc(C(F)(F)F)c1 [Example 359, N-[(1R)-1-[3-amino-5-(trifluoromethyl)phenyl]ethyl]-1-[2-fluoro-3-(3-methyltriazol-4-yl)phenyl]-6-oxo-pyridazine-3-carboxamide]",> 6.00
24,"C[C@@H](NC(=O)c1ccc(=O)n(-c2cccnc2F)n1)c1cc(N)cc(C(F)(F)F)c1 [Example 360, N-[(1R)-1-[3-amino-5-(trifluoromethyl)phenyl]ethyl]-1-(2-fluoro-3-pyridyl)-6-oxo-pyridazine-3-carboxamide]",> 6.00
